Molecules are shown by their SMILES. pKi: −log10 of the molar value. Structures can show the parent of a compound that is named as a salt.

This note sets out measurements from patent US9676701B2, “Cyclopropylamine derivatives useful as LSD1 inhibitors” (Oryzon Genomics, S.A., priority 2010, dated 2017).

What all share (experiment): biochemical
One test concerns the target MAO-B (Homo sapiens (Human), UniProt P27338).
The target of test [1] is Human recombinant LSD1 protein (Homo sapiens (Human), UniProt O60341).
Excerpt: The ability of the compounds of the invention to inhibit LSD1 can be tested as follows. Human recombinant LSD1 protein was purchased from BPS Bioscience Inc. In order to monitor LSD1 enzymatic activity and/or its inhibition rate by our inhibitor(s) of interest, di-methylated H3-K4 peptide (Millipore) was chosen as a substrate. The demethylase activity was estimated, under aerobic conditions, by measuring the release of H2O2 produced during the catalytic process, using the Amplex® Red peroxide/peroxidase-coupled assay kit (Invitrogen).
Within the experiment, each concentration of inhibitor was tested in triplicate. […] The enzymatic reactions were set up in a 50 mM sodium phosphate, pH 7.4 buffer. At the end of the incubation, Amplex® Red reagent and horseradish peroxidase (HPR) solution were added to the reaction according to the recommendations provided by the supplier (Invitrogen), and left to incubate for 30 extra minutes at room temperature in the dark. A 1 μM H2O2 solution was used as a control of the kit efficiency.
The Ki (IC50) of each inhibitor was estimated at half of the maximum activity.
A further test addresses MAO-A (Homo sapiens (Human), UniProt P21397).

Sequence of MAO-A (P21397 whole entry): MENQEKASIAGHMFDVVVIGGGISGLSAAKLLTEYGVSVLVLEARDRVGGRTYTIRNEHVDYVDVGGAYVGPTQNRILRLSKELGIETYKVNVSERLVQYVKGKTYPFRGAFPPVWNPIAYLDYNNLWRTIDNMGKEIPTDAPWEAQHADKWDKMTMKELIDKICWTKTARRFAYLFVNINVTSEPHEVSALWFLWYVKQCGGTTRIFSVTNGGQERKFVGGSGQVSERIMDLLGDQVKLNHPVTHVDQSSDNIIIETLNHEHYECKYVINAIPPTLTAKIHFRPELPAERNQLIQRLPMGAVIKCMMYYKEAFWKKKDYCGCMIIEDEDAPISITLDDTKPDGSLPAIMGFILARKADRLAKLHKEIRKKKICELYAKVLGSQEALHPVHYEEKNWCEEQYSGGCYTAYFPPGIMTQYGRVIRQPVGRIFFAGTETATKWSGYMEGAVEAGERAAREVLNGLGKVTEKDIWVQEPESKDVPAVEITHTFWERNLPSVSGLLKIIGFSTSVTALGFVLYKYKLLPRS
Sequence of MAO-B (P27338 whole entry): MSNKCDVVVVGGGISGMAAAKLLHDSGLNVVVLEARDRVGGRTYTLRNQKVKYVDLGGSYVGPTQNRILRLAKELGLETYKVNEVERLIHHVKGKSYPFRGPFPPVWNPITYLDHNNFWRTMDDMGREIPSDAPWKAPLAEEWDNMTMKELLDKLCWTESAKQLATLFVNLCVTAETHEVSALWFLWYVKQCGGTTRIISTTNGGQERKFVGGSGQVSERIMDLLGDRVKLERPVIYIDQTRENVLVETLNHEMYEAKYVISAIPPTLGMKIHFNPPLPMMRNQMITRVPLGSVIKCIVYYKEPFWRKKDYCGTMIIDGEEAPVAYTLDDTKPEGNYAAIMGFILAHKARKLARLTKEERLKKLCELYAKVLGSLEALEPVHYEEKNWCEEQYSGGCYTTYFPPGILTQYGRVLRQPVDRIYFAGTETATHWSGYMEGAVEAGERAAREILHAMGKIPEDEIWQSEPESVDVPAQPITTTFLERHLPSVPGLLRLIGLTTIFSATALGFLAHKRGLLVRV

What is called pKi is the Ki on a negative log10 scale, so that one unit is a factor of ten. As for `COc1ccc(-c2ccc([C@H]3C[C@@H]3N)cn2)cc1` (relative stereo) [Example 10, (trans)-2-(6-(4-methoxyphenyl)pyridin-3-yl)cyclopropanamine hydrochloride], the pKi at MAO-B is 4.40 to 6.00; in test [1], 6.00 to 7.00; at MAO-A, 4.40 to 6.00.
